Results: patent US20130287873A1, “PHARMACEUTICAL COMPOSITION AND METHOD FOR PREPARING A MEDICATION FOR PROMOTING WOUND HEALING” (INDUSTRIAL TECHNOLOGY RESEARCH INSTITUTE, priority 2012, published 2013)

Test system: human umbilical vein endothelial cells
Assay: Proliferation of human umbilical vein endothelial cells by MTT assay
Format: cell-based
Conditions: Table 4, 48 hours
Description: A growth factor, VEGF, or notoginsenoside R1, etc. were used as control groups to screen a plant extract for promoting proliferation of vein endothelial cells and estimating activity of the plant extract. The experimental method is described as follows. Human umbilical vein endothelial cells were inoculated in a 96 well plate coated with gelatin with a density of 5×10^3 cells/well, and cultured with M199 complete medium in a 37° C. incubator with 5% CO2 overnight. The next day, the medium in the 96 well plate was changed to a medium containing a test plant extract with a specific concentration and a fresh 5% serum without ECGS, and then the culture plate was incubated. After 48 hours, activity of cells in the culture plate were analyzed by MTT assay and quantitated to obtain the information of the-functional specice of plant, the best part of the plant and the best extraction method for the plant for promoting the proliferation of human umbilical vein endothelial cells.
The extract of whole plants of Sambucus formosana Nakai (Herb 1) and the extract of roots of Isatis indigotica Fort. (Herb 2) were diluted 10-fold from 100 μg/mL which was an effective concentration from the primary screening to 0.1 μg/mL to determine the effective range and dose-response of the herbal extracts. The results of the proliferation assay for cells treated with different single-plant extracts are shown in FIG. 1A and Table 4, the results of the activity assay for cells treated with a combination of plant extracts are shown in FIG. 1B and Table 5, and the results of the proliferation assay for cells treated with extracts of specific parts of the plant are shown in FIG. 1C and Table 6. The two kinds of herbs with a concentration of 100 μg/mL have significant effects for promoting growth of vein endothelial cells, and are capable of achieving a promoting effect equivalent to that of VEGF.

Row | SMILES | Cell growth rate (%) (mean ± standard deviation) (0.005 μM) | Cell growth rate (%) (mean ± standard deviation) (0.05 μM) | Cell growth rate (%) (mean ± standard deviation) (0.5 μM) | Cell growth rate (%) (mean ± standard deviation) (5 μM) | Cell growth rate (%) (mean ± standard deviation) (0.05 μg/mL) | Cell growth rate (%) (mean ± standard deviation) (0.5 μg/mL) | Cell growth rate (%) (mean ± standard deviation) (5 μg/mL) | Cell growth rate (%) (mean ± standard deviation) (50 μg/mL)
1 | C=CCSSCC=C [Diallyl disulfide (DADS), Diallyl disulfide] | 107 ± 6% | 110 ± 2% | 101 ± 9% | 108 ± 4% | – | – | – | –
2 | CC(C)=CCC[C@](C)(O[C@@H]1O[C@H](CO)[C@@H](O)[C@H](O)[C@H]1O)[C@H]1CC[C@]2(C)[C@@H]1[C@H](O)C[C@@H]1[C@@]3(C)CC[C@H](O)C(C)(C)[C@@H]3[C@@H](O[C@@H]3O[C@H](CO)[C@@H](O)[C@H](O)[C@H]3O[C@@H]3OC[C@@H](O)[C@H](O)[C@H]3O)C[C@]12C [Notoginsenoside R1] | – | – | – | – | 118 ± 5% | 95 ± 9% | 107 ± 18% | 91 ± 4%
3 | C=CCSCC=C [Diallyl sulfide (DAS), Diallyl sulfide] | 113 ± 12% | 123 ± 11% | 108 ± 2% | 148 ± 1% | – | – | – | –
